Data reported in article PMC10866072, “Design, synthesis, molecular modelling and biological evaluation of novel 6-amino-5-cyano-2-thiopyrimidine derivatives as potent anticancer agents against leukemia and apoptotic inducers” (Journal of Enzyme Inhibition and Medicinal Chemistry, 2024).

Experiments:
MOLT-4 = type: cell-based; conditions: one dose 10^-5 M, 48 h
IGROV1 = type: cell-based; conditions: 48 h
A549/ATCC = type: cell-based; conditions: one dose 10^-5 M, 48 h
SN12C = type: cell-based, human; conditions: one dose 10^-5 M, 48 h
M14 = type: cell-based; conditions: one dose 10^-5 M, 48 h
SF-268 = type: cell-based; conditions: one dose 10^-5 M, 48 h
SK-MEL-28 = type: cell-based; conditions: one dose 10^-5 M, 48 h
SNB-19 = type: cell-based; conditions: one dose 10^-5 M, 48 h
CAKI-1 = type: cell-based; conditions: one dose 10^-5 M, 48 h
SR = type: cell-based; conditions: one dose 10^-5 M, 48 h
HL-60(TB) = type: cell-based; conditions: one dose 10^-5 M, 48 h
SK-MEL-2 = type: cell-based; conditions: one dose 10^-5 M, 48 h
MDA-MB-435 = type: cell-based; conditions: one dose 10^-5 M, 48 h
HOP-92 = type: cell-based; conditions: one dose 10^-5 M, 48 h
U251 = type: cell-based; conditions: 48 h
OVCAR-4 = type: cell-based; conditions: one dose 10^-5 M, 48 h
NCI-H23 = type: cell-based; conditions: one dose 10^-5 M, 48 h
A498 = type: cell-based; conditions: one dose 10^-5 M, 48 h
RXF 393 = type: cell-based; conditions: one dose 10^-5 M, 48 h
UO-31 = type: cell-based; conditions: one dose 10^-5 M, 48 h
KM12 = type: cell-based; conditions: one dose 10^-5 M, 48 h
OVCAR-3 = type: cell-based; conditions: one dose 10^-5 M, 48 h
HT29 = type: cell-based; conditions: 48 h
PC-3 = type: cell-based; conditions: one dose 10^-5 M, 48 h
LOX IMVI = type: cell-based; conditions: one dose 10^-5 M, 48 h
MCF7 = type: cell-based; conditions: one dose 10^-5 M, 48 h
SF-295 = type: cell-based; conditions: one dose 10^-5 M, 48 h
SW-620 = type: cell-based; conditions: one dose 10^-5 M, 48 h
HCT-116 = type: cell-based; conditions: one dose 10^-5 M, 48 h
HS 578T = type: cell-based; conditions: one dose 10^-5 M, 48 h, HS 578T
EKVX = type: cell-based; conditions: one dose 10^-5 M, 48 h
NCI-H226 = type: cell-based; conditions: one dose 10^-5 M, 48 h
SNB-75 = type: cell-based; conditions: one dose 10^-5 M, 48 h
CCRF-CEM = type: cell-based; conditions: one dose 10^-5 M, 48 h
SK-OV-3 = type: cell-based; conditions: one dose 10^-5 M, 48 h
MDA-MB-231/ATCC = type: cell-based; conditions: one dose 10^-5 M, 48 h
HOP-62 = type: cell-based; conditions: one dose 10^-5 M, 48 h
MDA-MB-468 = type: cell-based; conditions: one dose 10^-5 M, 48 h
OVCAR-8 = type: cell-based; conditions: one dose 10^-5 M, 48 h
SK-MEL-5 = type: cell-based; conditions: one dose 10^-5 M, 48 h
[1] = test system: full NCI 60 cell lines panel
Experimental: 60 different human tumour cell lines-representing leukaemia, melanoma, and malignancies of the lung, colon, brain, ovary, breast, prostate, and kidney are used in the operation of this screen.
Compounds were dissolved in DMSO: glycerol (91) and were kept in a freezer at −70° C. The synthesised compounds were introduced to the culture at a single concentration of 1 0 ^−5 M and left to incubate for 48 h. A protein-binding dye called sulforhodamine B was used to measure end points (SRB).
A mean graph showing the % growth of treated cells is used to represent the one-dose data. The value provided for the One-dose assay represents growth in comparison to the no-drug control and to the number of cells at time zero. This enables the identification of lethality (values between 0 and 100) as well as growth inhibition (values less than 0). A value of 100, for instance, indicates no growth inhibition. A value of 40 would indicate 60% growth inhibition. A value of 0 indicates no net growth over the course of the experiment. A value of −40 would indicate 40% lethality.
Furthermore, the average sensitivity of all cell lines to the compound is termed as the full panel mean graph midpoints (MG-MID). The complete panel mean graph midpoints refers to the average sensitivity of all cell lines to the chemical (MG-MID). A measure of a compound’s selectivity for a given cell line is the ratio created by dividing the full panel mean graph midpoints (MG-MID) concentration by the individual subpanel MG-MID concentrations (obtained as the average sensitivity of all the cell lines in a given subpanel to the test compound).

HCC-2998 = type: cell-based; conditions: one dose 10^-5 M, 48 h
ACHN = type: cell-based; conditions: one dose 10^-5 M, 48 h
DU-145 = type: cell-based; conditions: one dose 10^-5 M, 48 h
K-562 = type: cell-based; conditions: 48 h
SF-539 = type: cell-based; conditions: one dose 10^-5 M, 48 h
NCI-H460 = type: cell-based; conditions: one dose 10^-5 M, 48 h
NCI-H522 = type: cell-based; conditions: one dose 10^-5 M, 48 h
TK-10 = type: cell-based; conditions: one dose 10^-5 M, 48 h
MALME-3M = type: cell-based; conditions: one dose 10^-5 M, 48 h
RPMI-8226 = type: cell-based; conditions: one dose 10^-5 M, 48 h
UACC-257 = type: cell-based; conditions: one dose 10^-5 M, 48 h
UACC-62 = type: cell-based; conditions: one dose 10^-5 M, 48 h
T-47D = type: cell-based; conditions: one dose 10^-5 M, 48 h
OVCAR-5 = type: cell-based; conditions: one dose 10^-5 M, 48 h
786-0 = type: cell-based; conditions: one dose 10^-5 M, 48 h
HCT-15 = type: cell-based; conditions: one dose 10^-5 M, 48 h
[2] = Homo sapiens, read-out: % growth

## 4-Amino-6–(4-chlorophenyl)-2-mercaptopyrimidine-5-carboximidohydrazide [Compound 2b]
MOLT-4
  % growth: 99.19%
IGROV1; one dose 10^-5 M
  % growth: 103.95%
A549/ATCC
  % growth: 110.21%
SN12C
  % growth: 99.89%
M14
  % growth: 111.66%
SF-268
  % growth: 108.46%
SK-MEL-28
  % growth: 108.56%
SNB-19
  % growth: 98.41%
CAKI-1
  % growth: 99.31%
SR
  % growth: 81.00%
HL-60(TB)
  % growth: 98.64%
SK-MEL-2
  % growth: 109.65%
MDA-MB-435
  % growth: 96.65%
HOP-92
  % growth: 107.66%
U251; one dose 10^-5 M
  % growth: 105.90%
OVCAR-4
  % growth: 103.90%
NCI-H23
  % growth: 107.36%
A498
  % growth: 116.23%
RXF 393
  % growth: 119.00%
UO-31
  % growth: 93.82%
KM12
  % growth: 100.03%
OVCAR-3
  % growth: 112.26%
HT29; one dose 10^-5 M
  % growth: 98.85%
PC-3
  % growth: 111.23%
LOX IMVI
  % growth: 109.11%
MCF7
  % growth: 98.64%
SF-295
  % growth: 93.17%
SW-620
  % growth: 103.87%
HCT-116
  % growth: 119.61%
HS 578T
  % growth: 128.54%
EKVX
  % growth: 100.22%
NCI-H226
  % growth: 121.25%
SNB-75
  % growth: 99.29%
CCRF-CEM
  % growth: 100.09%
SK-OV-3
  % growth: 123.58%
MDA-MB-231/ATCC
  % growth: 100.62%
HOP-62
  % growth: 113.92%
MDA-MB-468
  % growth: 102.27%
OVCAR-8
  % growth: 110.09%
SK-MEL-5
  % growth: 100.02%
[1]; one dose
  activity on all 60 cancer cell lines tested (in words): weak activity
[1]; one dose 10^-5 M, 48 h, mean over all cell lines
  Mean % growth: 105.07%
HCC-2998
  % growth: 105.50%
ACHN
  % growth: 102.02%
DU-145
  % growth: 106.23%
K-562; one dose 10^-5 M
  % growth: 98.62%
SF-539
  % growth: 103.32%
NCI-H460
  % growth: 107.93%
NCI-H522
  % growth: 98.92%
TK-10
  % growth: 113.67%
MALME-3M
  % growth: 109.72%
RPMI-8226
  % growth: 94.54%
UACC-257
  % growth: 114.55%
UACC-62
  % growth: 100.76%
T-47D
  % growth: 96.25%
OVCAR-5
  % growth: 103.26%
786-0
  % growth: 99.27%
HCT-15
  % growth: 103.81%

## N#Cc1c(N)nc(S)nc1-c1ccc(Cl)cc1 [Compound 1b]
MOLT-4; [2]
  activity at 10 µM: 50.7%
IGROV1; Homo sapiens, IGROV-1, one dose 10^-5 M, read-out: % growth
  activity at 10 µM: 57.9%
A549/ATCC; Homo sapiens
  % growth at 10 µM: 86%
SN12C; Homo sapiens
  % growth at 10 µM: 75.7%
M14; Homo sapiens
  % growth at 10 µM: 99.9%
SF-268; [2]
  activity at 10 µM: 69.7%
SK-MEL-28; Homo sapiens
  % cell growth at 10 µM: 95.6%
SNB-19; [2]
  activity at 10 µM: 60.4%
CAKI-1; Homo sapiens, CAKI-1, 48 h
  % growth at 10 µM: 52%
SR; Homo sapiens
  percent cell growth at 10 µM: 66.9%
HL-60(TB); Homo sapiens
  % growth at 10 µM: 69.6%
SK-MEL-2; Homo sapiens
  % growth at 10 µM: 96.5%
MDA-MB-435; [2]
  activity at 10 µM: 86.5%
HOP-92; Homo sapiens
  % growth at 10 µM: 43.5%
U251; Homo sapiens, U-251, one dose 10^-5 M
  % growth at 10 µM: 81.6%
OVCAR-4; Homo sapiens
  % growth at 10 µM: 76.2%
NCI-H23; [2]
  activity at 10 µM: 85.5%
A498; Homo sapiens
  % growth at 10 µM: 77.4%
RXF 393; Homo sapiens, RXF 393, 48 h, read-out: % growth
  activity at 10 µM: 55.5%
UO-31; Homo sapiens, UO-31, 48 h
  % cell growth at 10 µM: 45.4%
KM12; Homo sapiens
  % growth at 10 µM: 82%
OVCAR-3; Homo sapiens
  % growth at 10 µM: 93.4%
HT29; Homo sapiens, HT-29, one dose 10^-5 M
  % growth at 10 µM: 91.1%
PC-3; Homo sapiens
  percent cell growth at 10 µM: 56.4%
LOX IMVI; [2]
  activity at 10 µM: 79.2%
MCF7; [2]
  activity at 10 µM: 67.7%
SF-295; Homo sapiens
  % cell growth at 10 µM: 76.2%
SW-620; Homo sapiens
  % growth at 10 µM: 87.3%
HCT-116; [2]
  activity at 10 µM: 76.5%
HS 578T; [2]
  activity at 10 µM: 74%
EKVX; Homo sapiens
  % cell growth at 10 µM: 61%
NCI-H226; Homo sapiens
  % growth at 10 µM: 78.7%
SNB-75; Homo sapiens
  % growth at 10 µM: 42.2%
CCRF-CEM; Homo sapiens
  % cell growth at 10 µM: 65.5%
SK-OV-3; Homo sapiens
  % growth at 10 µM: 84.3%
MDA-MB-231/ATCC; Homo sapiens
  % growth at 10 µM: 53.7%
HOP-62; Homo sapiens
  % growth at 10 µM: 74.6%
MDA-MB-468; Homo sapiens
  percent cell growth at 10 µM: 81.1%
OVCAR-8; Homo sapiens
  % growth of cells at 10 µM: 82.2%
SK-MEL-5; [2]
  activity at 10 µM: 85.9%
[1]; Homo sapiens, 60 cell, 48 h, read-out: Mean % growth
  activity at 10 µM: 75.7%
HCC-2998; Homo sapiens
  % growth at 10 µM: 99.6%
ACHN; Homo sapiens
  % growth at 10 µM: 77.2%
DU-145; Homo sapiens
  % growth at 10 µM: 86.8%
K-562; Homo sapiens, K562, one dose 10^-5 M
  % growth at 10 µM: 68.1%
SF-539; Homo sapiens
  % growth at 10 µM: 71.9%
NCI-H460; [2]
  activity at 10 µM: 86.7%
NCI-H522; Homo sapiens
  % growth at 10 µM: 58.7%
TK-10; Homo sapiens
  % cell growth at 10 µM: 126%
MALME-3M; Homo sapiens
  % growth at 10 µM: 99.6%
RPMI-8226; Homo sapiens
  % growth at 10 µM: 47.2%
UACC-257; Homo sapiens
  percent cell growth at 10 µM: 102%
UACC-62; Homo sapiens
  % growth at 10 µM: 66.8%
T-47D; Homo sapiens, T47D, read-out: % growth
  activity at 10 µM: 58.3%
OVCAR-5; Homo sapiens
  percent cell growth at 10 µM: 91.6%
786-0; Homo sapiens
  % growth at 10 µM: 85%
HCT-15; [2]
  activity at 10 µM: 86%
